Experimental data as given in PubChem BioAssay (NCI).
Several values for one entry are separate records, joined by “and”; a condition that tells them apart may be missing. Equal values may be shown once.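 Step 1: Grow cells in 96-well plates. Step 2: Expose to compound for 48 hours at 5 concentrations. Step 3: Interpolate endpoints linearly; if unreached, use highest concentration. GI50 = concentration required for 50% inhibition of growth. TGI: total growth inhibition.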

How the values were obtained:
Experiment in all cases: NCI tumour cell line growth inhibition, 48 h
SNB-19 CNS = tested on: SNB-19 CNS
ACHN renal = tested on: ACHN renal
NCI-H460 lung = tested on: NCI-H460 lung
PC-3 prostate = tested on: PC-3 prostate
OVCAR-8 ovarian = tested on: OVCAR-8 ovarian
BT-549 breast = tested on: BT-549 breast
SK-MEL-2 melanoma = tested on: SK-MEL-2 melanoma
KM12 colon = tested on: KM12 colon

c1ccc2nc(Cn3c[n+](Cc4ccc5ccccc5n4)c4ccccc43)ccc2c1
GI50 (SNB-19 CNS): 2.22 µM
TGI (SNB-19 CNS): 10.4 µM
GI50 (ACHN renal): 14.6 µM
TGI (ACHN renal): 31.1 µM
GI50 (NCI-H460 lung): 2.8 µM
TGI (NCI-H460 lung): 12.3 µM
GI50 (PC-3 prostate): 2.48 µM
TGI (PC-3 prostate): 12.2 µM
GI50 (OVCAR-8 ovarian): 3.13 µM
TGI (OVCAR-8 ovarian): 11.3 µM
GI50 (BT-549 breast): 1.95 µM
TGI (BT-549 breast): 6.5 µM
GI50 (SK-MEL-2 melanoma): 2.61 µM
TGI (SK-MEL-2 melanoma): 6.87 µM
GI50 (KM12 colon): 1.61 µM
TGI (KM12 colon): 4.54 µM

Nc1ncnc2sc(=S)c3c(c12)CCC3
GI50 (SNB-19 CNS): 29.2 µM
TGI (SNB-19 CNS): 82.9 µM
GI50 (ACHN renal): 26.3 µM
TGI (ACHN renal): > 100 µM
GI50 (NCI-H460 lung): 35.1 µM
TGI (NCI-H460 lung): > 100 µM
GI50 (PC-3 prostate): 32.1 µM
TGI (PC-3 prostate): > 100 µM
GI50 (OVCAR-8 ovarian): 37.7 µM
TGI (OVCAR-8 ovarian): > 100 µM
GI50 (BT-549 breast): 22.5 µM
TGI (BT-549 breast): 68.2 µM
GI50 (SK-MEL-2 melanoma): 81.8 µM
TGI (SK-MEL-2 melanoma): > 100 µM
GI50 (KM12 colon): 40.7 µM
TGI (KM12 colon): > 100 µM

O=c1cc(CNc2cc(F)cc(F)c2)c2ccc(I)cc2[nH]1
GI50 (SNB-19 CNS): 0.637 µM
TGI (SNB-19 CNS): > 100 µM
GI50 (ACHN renal): 0.75 µM
TGI (ACHN renal): > 100 µM
GI50 (NCI-H460 lung): 0.427 µM
TGI (NCI-H460 lung): > 100 µM
GI50 (PC-3 prostate): 0.571 µM
TGI (PC-3 prostate): > 100 µM
GI50 (OVCAR-8 ovarian): 2.83 µM
TGI (OVCAR-8 ovarian): > 100 µM
GI50 (BT-549 breast): 1.02 µM
TGI (BT-549 breast): > 100 µM
GI50 (SK-MEL-2 melanoma): 1.44 µM
TGI (SK-MEL-2 melanoma): > 100 µM
GI50 (KM12 colon): 0.423 µM
TGI (KM12 colon): > 100 µM

Cn1c(=O)c2[nH]c(/N=N/N3CCN(CCO)CC3)nc2n(C)c1=O
TGI (SNB-19 CNS): > 100 µM
TGI (ACHN renal): > 100 µM
TGI (NCI-H460 lung): > 100 µM
TGI (PC-3 prostate): > 100 µM
TGI (OVCAR-8 ovarian): > 100 µM
TGI (BT-549 breast): > 100 µM
TGI (SK-MEL-2 melanoma): > 100 µM
TGI (KM12 colon): > 100 µM

CC12CCC(=O)C=C1CCC1C2CCC2(C)C(C(=O)Cn3cnc4c(=S)nc[nH]c43)CCC12 (stereo not given)
TGI (SNB-19 CNS): 73.8 µM
TGI (ACHN renal): > 100 µM
TGI (NCI-H460 lung): > 100 µM
TGI (PC-3 prostate): > 100 µM
TGI (OVCAR-8 ovarian): > 100 µM
TGI (BT-549 breast): > 100 µM
TGI (SK-MEL-2 melanoma): > 100 µM
TGI (KM12 colon): > 100 µM

O=C(Nc1cccc(Cl)c1)Nc1ncc(CCNc2ncnc3ccsc23)s1
GI50 (SNB-19 CNS): 11.2 µM and > 10 µM
TGI (SNB-19 CNS): 26.9 µM and > 10 µM
GI50 (ACHN renal): 2.3 µM and 2.06 µM
TGI (ACHN renal): 16.8 µM and > 10 µM
GI50 (NCI-H460 lung): 0.114 µM and 0.991 µM
TGI (NCI-H460 lung): > 72.2 µM
GI50 (PC-3 prostate): 1.05 µM and 1.92 µM
TGI (PC-3 prostate): 13.8 µM and > 10 µM
GI50 (OVCAR-8 ovarian): 1.68 µM and 1.22 µM
TGI (OVCAR-8 ovarian): 9.64 µM and 5.31 µM
GI50 (BT-549 breast): 2.07 µM and 1.68 µM
TGI (BT-549 breast): 11.8 µM and 7.75 µM
GI50 (SK-MEL-2 melanoma): 2.88 µM and 1.76 µM
TGI (SK-MEL-2 melanoma): 10.8 µM and 6.26 µM
GI50 (KM12 colon): 0.12 µM and 0.0657 µM
TGI (KM12 colon): > 35.3 µM

COc1cc2c(cc1OC)-c1ccc3cc4c(cc3c1N(CCN1CCCC1)C2)OCO4
GI50 (SNB-19 CNS): 0.543 µM
TGI (SNB-19 CNS): 1.85 µM
GI50 (ACHN renal): 0.514 µM
TGI (ACHN renal): 2.43 µM
GI50 (NCI-H460 lung): 0.289 µM
TGI (NCI-H460 lung): 1.17 µM
GI50 (PC-3 prostate): 0.303 µM
TGI (PC-3 prostate): 1.85 µM
GI50 (OVCAR-8 ovarian): 0.404 µM
TGI (OVCAR-8 ovarian): 2.06 µM
GI50 (BT-549 breast): 1.6 µM
TGI (BT-549 breast): 9.01 µM
GI50 (SK-MEL-2 melanoma): 7.61 µM
TGI (SK-MEL-2 melanoma): 20.1 µM
GI50 (KM12 colon): 0.538 µM
TGI (KM12 colon): 1.99 µM

CC(C)(O)c1ccc(N2CCN(c3nnc(Cc4ccccc4)c4ccccc34)CC2)nc1
GI50 (SNB-19 CNS): 15.8 µM
TGI (SNB-19 CNS): 67.1 µM
GI50 (ACHN renal): 11.3 µM
TGI (ACHN renal): 47.7 µM
GI50 (NCI-H460 lung): 9.83 µM
TGI (NCI-H460 lung): 34.3 µM
GI50 (PC-3 prostate): 10.7 µM
TGI (PC-3 prostate): > 56.5 µM
GI50 (OVCAR-8 ovarian): 8.01 µM
TGI (OVCAR-8 ovarian): 42.5 µM
GI50 (BT-549 breast): 6.28 µM
TGI (BT-549 breast): 24 µM
GI50 (SK-MEL-2 melanoma): 9.57 µM
TGI (SK-MEL-2 melanoma): 26.2 µM
GI50 (KM12 colon): 13.2 µM
TGI (KM12 colon): 29.5 µM

NC(=O)[C@H]1CCN(c2ncnc(N)c2F)C[C@@H]1N1CCC[C@@H](Nc2cc(Cl)cc(C(F)(F)F)c2)C1=O
GI50 (SNB-19 CNS): 25.8 µM
TGI (SNB-19 CNS): > 100 µM
GI50 (ACHN renal): 7 µM
TGI (ACHN renal): 76.3 µM
GI50 (NCI-H460 lung): 18.4 µM
TGI (NCI-H460 lung): 41.6 µM
GI50 (PC-3 prostate): 17.7 µM
TGI (PC-3 prostate): > 100 µM
GI50 (OVCAR-8 ovarian): 25.6 µM
TGI (OVCAR-8 ovarian): > 100 µM
GI50 (BT-549 breast): 21.4 µM
TGI (BT-549 breast): 51.1 µM
GI50 (SK-MEL-2 melanoma): 19 µM
TGI (SK-MEL-2 melanoma): 41.5 µM
GI50 (KM12 colon): 6.31 µM
TGI (KM12 colon): > 100 µM

CN(C)CCNC(=O)c1cccn2c(=O)c3cc4ccccc4cc3nc12
GI50 (SNB-19 CNS): 0.185 µM
TGI (SNB-19 CNS): 47.7 µM
GI50 (ACHN renal): 0.0422 µM
TGI (ACHN renal): > 36.4 µM
GI50 (NCI-H460 lung): 0.0439 µM
TGI (NCI-H460 lung): 0.283 µM
GI50 (PC-3 prostate): 0.194 µM
TGI (PC-3 prostate): > 22 µM
GI50 (OVCAR-8 ovarian): 0.0577 µM
TGI (OVCAR-8 ovarian): > 69.6 µM
GI50 (BT-549 breast): 0.68 µM
TGI (BT-549 breast): 2.83 µM
GI50 (SK-MEL-2 melanoma): 0.203 µM
TGI (SK-MEL-2 melanoma): 1.32 µM
GI50 (KM12 colon): 0.161 µM
TGI (KM12 colon): 1.41 µM

Fc1ccc2[nH]cc(Cc3c[nH]c4ccc(F)cc34)c2c1
GI50 (SNB-19 CNS): 20.2 µM
TGI (SNB-19 CNS): 51.9 µM
GI50 (ACHN renal): 26.1 µM
TGI (ACHN renal): 63 µM
GI50 (NCI-H460 lung): 25.3 µM
TGI (NCI-H460 lung): > 100 µM
GI50 (PC-3 prostate): 15 µM
TGI (PC-3 prostate): 35 µM
GI50 (OVCAR-8 ovarian): 19.4 µM
TGI (OVCAR-8 ovarian): 52 µM
GI50 (BT-549 breast): 13.9 µM
TGI (BT-549 breast): 30.3 µM
GI50 (SK-MEL-2 melanoma): 19.8 µM
TGI (SK-MEL-2 melanoma): 46.1 µM
GI50 (KM12 colon): 12 µM
TGI (KM12 colon): 30.2 µM
